Measured values published in PubChem BioAssay AID179 (DTP/NCI, 2004).
Active and inactive are the calls of the source.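 How the source made its calls: active means compounds giving half or more protection of infected cells from virus-caused growth loss, again on retest; inactive means the rest.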 Where a SMILES comes first, the peptide text is derived from it. [ ]: non-standard residue; d: D form. The star is where a group is joined. ξ: configuration not given here. ξW = NC(Cc1c[nH]c2ccccc12)C(=O)O; X18 = O=C(O)[C@H]1CCC[C@H]1N*; ξF = NC(Cc1ccccc1)C(=O)O; Boc = CC(C)(C)OC(=O)*; ξK = NCCCCC(N)C(=O)O; ξT = CC(O)C(N)C(=O)O; tBu = CC(C)(C)*

Test system: CEM cells HIV-1 protection, formazan growth assay
Assay: NCI AIDS Antiviral Assay
Details: for IC50: measured here: growth of uninfected CEM cells
How it was run: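 Screen of anti-HIV-1 activity in human CEM cells using a formazan-based growth measurement at five drug concentrations. Hits with 50% or greater protection were repeated, and confirmation required reproducible complete protection.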

| SMILES | EC50 [µM] | IC50 [µM] | outcome |
| --- | --- | --- | --- |
| C=C1CC(Cn2cc(C)c(=O)[nH]c2=O)(c2ccc(Cl)cc2)OC1=O (stereo not given) | > 20 | 0.617 |  |
| C[C@@H]1CC[C@@]2(OC1)O[C@H]1C[C@H]3[C@@H]4CC[C@H]5C[C@@H](OC6OC(CO)C(OC7OC(CO)C(O)C(OC8OCC(O)C(O)C8O)C7OC7OC(CO)C(O)C(O)C7O)C(O)C6O)CC[C@]5(C)[C@H]4CC[C@]3(C)[C@H]1[C@@H]2C (stereo not given in full) | > 100 | 6.17 |  |
| Cc1cc(S(=O)(=O)NC2=NCCCN2)c(S)cc1Cl | > 257 | 64.6 |  |
| NC(CSS(=O)(=O)O)=NCCCc1nc2ccccc2[nH]1 | > 200 | 45.7 |  |
| N=C1OC(CN2CCN(c3ccccc3)CC2)CN1C(=S)Nc1ccccc1 (stereo not given) | > 200 | 141 |  |
| Clc1cccc(Cl)c1C1SCc2nc3ncccc3n21 (stereo not given) | 32.4 | 105 |  |
| CC(NC(=O)C(N)CC(=O)O)C(=O)OC12CC3CC(CC(C3)C1)C2 (stereo not given) | > 200 | > 200 |  |
| Cc1ccccc1C1SCc2nc3ccccc3n21 (stereo not given) |  |  | inactive |
| Cn1c(=O)cc(/C=C/c2ccnc3ccccc23)c2ccccc21 | > 200 | > 200 |  |
| CC(=O)OC1COC(n2c(=S)n(-c3ccc(C)cc3)c(=O)c3ccccc32)C(OC(C)=O)C1OC(C)=O (stereo not given) | > 25.7 | > 25.7 |  |
| c1cc2cc3c(cc2o1)OC[C@H]1c2cc4c(cc2O[C@@H]31)OCO4 | > 43.7 | 10.5 |  |
| CCOc1ccccc1NC(=O)CCC(=O)OC | > 1000 | > 1000 |  |
| CCOC(=O)c1ccc(CS(=O)(=O)c2ccccc2C(=O)OCC)cc1 | > 95.5 | > 95.5 |  |
| COc1ccc(CC2NCCc3cc(OC)c(OC)cc32)cc1Br (stereo not given) | > 240 | 33.9 |  |
| CCOC(=O)C(C)c1nc2cc(N3CCOCC3)c(F)cc2[nH]c1=O (stereo not given) | > 200 | > 200 |  |
| CCN(CC)C1CC(O[C@H]2C[C@](O)(C(=O)CO)Cc3c(O)c4c(c(O)c32)C(=O)c2c(OC)cccc2C4=O)OC(C)C1O (stereo not given in full) |  |  | inactive |
| CC(=O)N(O)C(C)=O | > 2140 | 1780 |  |
| Nc1nc2c(ncn2COCCO)c(=O)[nH]1 | > 794 | > 794 |  |
| CC(=O)NNc1nc(C)c(C(/C=C/c2ccc([N+](=O)[O-])cc2)=N/N)s1 | > 69.2 | > 69.2 |  |
| CC1=C(C(=O)Nc2c(C)cccc2C)C(c2ccccc2Cl)C(C(=O)Nc2c(C)cccc2C)=C(C)N1 | > 355 | 324 |  |
| COC(=O)c1cnn2c1n[n+]([O-])c1ccccc12 | > 200 | > 200 |  |
| C/C=C1/CN2C3CC1C1(C(=O)OC)C(OC(C)=O)[C@]4(C[C@H]21)c1cc(OC)ccc1N(C)C34 (stereo not given in full) |  |  | inactive |

| SMILES | EC50 [µM] | IC50 [µM] | outcome |
| --- | --- | --- | --- |
| CC(C)(C)C#CI1OC(=O)c2ccccc21 | > 200 | 2.14 |  |
| Cc1ccc(N2C(=O)N(c3ccc(C)cc3)C3(SC=NN3C)C2=O)cc1 (stereo not given) |  |  | inactive |
| COc1ccc2c(c1)CSCC2=O | > 513 | > 200 |  |
| COc1cc(-c2[o+]c3cc(O)cc(OC4OC(CO)C(O)C(O)C4O)c3cc2OC2OC(CO)C(O)C(O)C2O)cc(OC)c1O (stereo not given) | > 67.6 | 40.7 |  |
| O=[N+]([O-])c1ccc2n[nH]nc2c1 | > 200 | 182 |  |
| COc1ccc2c(N=[N+]=[N-])c(-c3ccccc3)c(=O)oc2c1 |  |  | inactive |
| CCOC(=O)/C(O)=C(/C=N/C(=S)Nc1c(CC)cccc1CC)C(=O)OCC | > 200 | 110 |  |
| Cc1cn(C2CC(O)C(CN(O)C(N)=O)O2)c(=O)[nH]c1=O (stereo not given) | > 100 | > 100 |  |
| COc1ccc(-c2nc(-c3cnccn3)n(Cc3ccccc3)n2)cc1 | 83.2 | > 200 |  |
| COc1ccc(C2C(Cl)C(=O)N2NC(=O)c2ccc(NC(C)=O)cc2)cc1 (stereo not given) | > 200 | > 200 |  |
| COC(=O)c1cc2cnc1CSCc1cnc(c(C(=O)OC)c1)CSC2 | > 200 | > 200 |  |
| CC(=O)ONc1nn2cc(-c3ccccc3)nc2s1 | > 200 | > 200 |  |
| CC(=O)OCC12CCC3C4(C)CCCC(C)(C)C4CCC3(C)C1CC(C1=CC(=O)OC1O)O2 (stereo not given) | > 200 | 1.05 |  |
| COc1ccc2oc(=N)c(C(N)=S)cc2c1 | > 200 | 26.9 |  |
| COC(=O)c1ccc(NCC2=C(Br)C(=O)C=CC2=O)cc1Cl |  |  | inactive |
| NC1=NN(c2ccccc2)C(=O)/C1=C\n1c(=S)[nH]c2ccccc21 | > 200 | > 200 |  |
| O=C1C2C3C=C4c5ccccc5N(c5ccccc5)C4([C@@H]2C(=O)N1c1ccc(F)cc1)[C@H]1C(=O)N(c2ccc(F)cc2)C(=O)[C@@H]31 (stereo not given in full) | > 12 | > 12 |  |
| CCCCC(c1nc2c(c3c1CCCC3)CCCC2)C(O)(C(F)(F)F)C(F)(F)F (stereo not given) | > 200 | 38.9 |  |
| CCC(NC(C)c1ccccc1)C(O)c1ccc(OCc2ccccc2)c(OCc2ccccc2)c1 (stereo not given) | > 200 | 10.7 |  |
| N#Cc1cccc(C2SCc3nc4ccccc4n32)c1 (stereo not given) | 19.5 | 60.3 |  |
| CC(OC(C)(C)C)C(NC(=O)C(CCCCNC(=O)OC(C)(C)C)NC(=O)C(Cc1c[nH]c2ccccc12)NC(=O)C(N)Cc1ccccc1)C(=O)NC(Cc1ccccc1)C(=O)N[C@@H]1CCC[C@@H]1C(=O)O (stereo not given in full) (H-[ξF][ξW][ξK](Boc)[ξT](tBu)[ξF]-X18) |  |  | inactive |
| CC(C)N(C(=O)c1ccc([N+](=O)[O-])cc1)C(C)C | > 200 | > 200 |  |

| SMILES | EC50 [µM] | IC50 [µM] | outcome |
| --- | --- | --- | --- |
| CCN(CC)CCN1CCNc2c3cc(OC)ccc3nc3c([N+](=O)[O-])ccc1c23 | > 100 | 1.58 |  |
| O=C(O)CCC(=O)NCCOC(=O)CCC(=O)O | > 955 | > 955 |  |
| CC(=O)Nc1ccc(C2SCc3nc4ccccc4n32)cc1 (stereo not given) | > 200 | > 200 |  |
| Cc1cccc(NC(=S)Nc2cccc(Cl)c2)n1 | > 200 | > 200 |  |
| CCCN(CCC)CCCOC(=O)c1ccc2oc3ccc(C(=O)OCCCN(CCC)CCC)cc3c2c1 | > 112 | 6.61 |  |
| CC(=O)C1C(=O)C(=O)N(c2ccccc2)C1=O (stereo not given) | > 200 | > 200 |  |
| O=C(CSc1nnc(Cc2ccccc2)o1)Nc1ccc(Cl)cc1[N+](=O)[O-] | > 617 | 25.1 |  |
| COc1ccc(CC(=O)NC(C)Cc2ccc(OC)c(OC)c2)cc1OC (stereo not given) |  |  | inactive |
| COc1cccc(C(CC(=O)O)=NCCc2c[nH]c3ccccc23)c1C(=O)O | > 603 | 316 |  |
| O=C(O)CSCc1cc2c(O)c(c1)Cc1cc(CSCC(=O)O)cc(c1O)Cc1cc(CSCC(=O)O)cc(c1O)Cc1cc(CSCC(=O)O)cc(c1O)C2 | > 22.4 | > 22.4 |  |
| CN(/N=C/c1cccc2cccnc12)c1ccc([N+](=O)[O-])cc1 |  |  | inactive |
| COc1cc2c(cc1O)[C@H](C)C(c1ccc(Cl)cc1)O2 (stereo not given in full) | > 64.6 | 33.1 |  |
| Nc1nc(Cl)c(N=Nc2ccc(Cl)cc2)c(NCC2(CO)CCC2)n1 | > 200 | > 200 |  |
| c1cc(-c2nc(-c3ccncc3)nc(-c3ccncc3)n2)ccn1 | > 200 | > 200 |  |
| CC[C@@H]1OC2(C)CC(S(=O)(=O)c3ccccc3O)CC1O2 (stereo not given in full) | > 794 | 741 |  |
| CC(C)(c1ccc(Oc2ccc(C#N)c(C#N)c2)cc1)c1ccc(Oc2ccc(C#N)c(C#N)c2)cc1 | > 10.7 | > 10.7 |  |
| Nc1nc(Br)nc2ncn(C3CC(O)C(CO)O3)c12 (stereo not given) | > 200 | 7.41 |  |
| Cc1ccc2c(c1N)C(=O)c1ccccc1C2=O | > 200 | 123 |  |
| COC(=O)n1c(=O)n(-c2ccccc2)c(=O)n1C(=O)OC | 155 | 195 |  |
| CCOC(=O)C(=O)CC1=NC2CCCCC2N(C)C1=O (stereo not given) | > 200 | > 200 |  |
| CN(C)c1ccc2c(c1)-c1cc(N(C)C)ccc1C2=CC=C1C(=O)NC(=O)NC1=O | > 3.39 | > 3.39 |  |
| COC1/C=C/OC2(C)Oc3c(C)c(O)c4c(O)c(c(/C=N/N5CCC(N6CCCCC6)CC5)c(O)c4c3C2=O)NC(=O)C(C)=C/C=C/C(C)C(O)C(C)C(O)C(C)C(OC(C)=O)C1C (stereo not given) | > 75.9 | > 75.9 |  |

| SMILES | EC50 [µM] | IC50 [µM] | outcome |
| --- | --- | --- | --- |
| CCC1(CC)C(=O)N(C(=O)c2cc(OC)c(OC)c(OC)c2)N(C(=O)c2cc(OC)c(OC)c(OC)c2)C1=O | > 200 | 10.7 |  |
| CCN1CCCC(C#N)(c2ccccc2)CC1 (stereo not given) | > 933 | 501 |  |
| O=C(c1ccccc1)N1CCC(Nc2nccs2)O1 (stereo not given) | > 200 | > 200 |  |
| c1ccc2c(c1)Cc1c(Cc3csc4ccccc34)ccc3cccc-2c13 | > 7.24 | > 7.24 |  |
| Nc1c(Cl)ncnc1N[C@@H]1C[C@H]1CO | > 200 | > 200 |  |
| CC1(C)OC(=O)N(c2ccccc2)C12C=Cc1cc([N+](=O)[O-])ccc1O2 (stereo not given) | > 151 | 61.7 |  |
| CN(C)c1ncnc2c1ncn2C1OC(CO)C(O)C1O (stereo not given) |  |  | inactive |
| CN=C(NC)NCc1ccccc1 | > 200 | 178 |  |
| NC(Cc1ccccc1)C(=O)NC(Cc1ccccc1)NC(=O)C(Cc1c[nH]c2ccccc12)C(=O)O (stereo not given) |  |  | inactive |
| CC(C)N1C(=O)N(Cl)C2C1N(Cl)C(=O)N2Cl (stereo not given) | > 200 | > 200 |  |
| Cc1c(CCO)c(=O)n2n1CCCC2 | > 200 | > 200 |  |
| CCOC(=O)C1(C(N)=O)C(=O)c2ccncc2C1=O (stereo not given) | > 200 | > 200 |  |
| O=C1/C(=C/c2ccc3c(c2)CCC3)Cc2cc3c(cc21)CCC3 | > 200 | > 200 |  |
| Cc1nc(Nc2ccc(Cl)cc2)sc1C(=O)NNc1ccc([N+](=O)[O-])cc1[N+](=O)[O-] | > 39.8 | 25.1 |  |
| N#CCCC(CC#N)S(=O)(=O)O (stereo not given) | > 200 | > 200 |  |
| COc1cc(OC)c(OC)cc1/C=N/NC(=O)N/N=C/c1cc(OC)c(OC)cc1OC |  |  | inactive |
| Clc1cc2nc3[nH]c4ccccc4c3nc2cc1Cl | > 83.2 | > 83.2 |  |
| CC(C)[N+](C)(C)CC(O)COc1cccc2ccccc12 (stereo not given) | > 200 | > 200 |  |
| O=S1Nc2cccc(C(F)(F)F)c2S1 (stereo not given) | > 57.5 | > 57.5 |  |
| COC(=O)c1c(C)cccc1C1CN=NC12Cc1cc(C)cc(C)c1C2=O (stereo not given) | > 200 | 33.1 |  |
